Values of other authors, collected in US5413991A (Ajinomoto Co., Inc., priority 1991, dated 1995).

Key:
[1] = system: chitinase of pathogenic fungi such as Candida albicans; settings: background statement; cited from earlier work
[2] = target: chitinase from baker's yeast (Saccharomyces cerevisiae) (Saccharomyces cerevisiae, UniProt P29029); settings: background statement; cited from earlier work
chitinase from baker's yeast (Saccharomyces cerevisiae), sequence (P29029 21-562): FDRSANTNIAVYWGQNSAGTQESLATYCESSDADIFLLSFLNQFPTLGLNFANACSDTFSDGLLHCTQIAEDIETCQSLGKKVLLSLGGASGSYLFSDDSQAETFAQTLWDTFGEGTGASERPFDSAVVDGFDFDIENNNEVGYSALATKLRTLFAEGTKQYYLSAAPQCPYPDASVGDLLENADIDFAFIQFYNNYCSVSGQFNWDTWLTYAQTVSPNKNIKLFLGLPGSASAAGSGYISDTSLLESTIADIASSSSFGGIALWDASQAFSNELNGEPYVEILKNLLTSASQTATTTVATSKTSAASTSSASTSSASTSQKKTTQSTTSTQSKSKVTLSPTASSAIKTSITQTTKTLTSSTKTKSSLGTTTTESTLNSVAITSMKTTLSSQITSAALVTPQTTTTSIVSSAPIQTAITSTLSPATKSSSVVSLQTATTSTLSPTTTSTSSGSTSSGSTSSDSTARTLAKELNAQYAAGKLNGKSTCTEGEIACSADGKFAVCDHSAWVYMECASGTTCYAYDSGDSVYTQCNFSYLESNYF

CNC1=N[C@@H]2[C@@H](O)[C@H](O[C@@H]3O[C@H](CO)[C@@H](O[C@@H]4O[C@H](CO)[C@@H](O)[C@@H](O)[C@H]4NC(C)=O)[C@@H](O)[C@H]3NC(C)=O)[C@@H](CO)[C@@H]2O1 [Demethylallosamidin, demethylallosamidin]
Inhibitory activity against chitinase of Candida albicans [1]: insufficient
Inhibitory activity against chitinase from baker's yeast [2]: potent inhibitory activity
